Type in all cases: cell-based
For test [1], the target named is T1, human recombinant prostanoid FP receptor (Homo sapiens, UniProt P43088).
T1 construct: expressed in transfected cells
Kind of test: FLIPR Ca2+ signaling, PG antagonist activity, FP. To be noted: antagonism of standard agonist 17-phenyl-PGF2α, HEK-293 EBNA stable cells. The protocol: (§1) The above compounds were tested for PG antagonist activity as follows using human recombinant prostanoid receptor (DP1, EP1-4, FP, IP and TP) stable cell lines:
(§2) In order to measure the response of Gs and Gi coupled prostanoid receptors as a Ca^2+ signal, chimeric G protein cDNAs were used. Stable cell lines over-expressing human prostanoid DP1, EP1-4, FP, IP, and TP receptors were established as follows:
(§3) Briefly, human prostanoid DP1, EP2, and EP4 receptor cDNAs were co-transfected with chimeric Gqs cDNA containing a haemagglutanin (HA) epitope; human prostanoid EP3 receptors were co-transfected with chimeric Gqi-HA; human EP1, FP, IP, and TP receptor cDNAs were expressed with no exogenous G-proteins. Gqs and Gqi chimeric cDNAs (Molecular Devices, Sunnyvale, Calif., U.S.A.), as well as cDNAs of prostanoid receptors, were cloned into a pCEP4 vector with a hygromycin B selection marker. Transfection into HEK-293 EBNA (Epstein-Barr virus nuclear antigen) cells was achieved by the FuGENE 6 transfection Reagent (Roche Applied Science, Indianapolis, Ind., USA). Stable transfectants were selected according to hygromycin resistance. Because Gqs and Gqi contained an HA epitope, G-protein expression was detected by Western blotting analysis using anti-mouse HA monoclonal antibody and horseradish peroxidase (HRP)-conjugated secondary antibody, while functional expression of prostanoid receptors was detected by FLIPR screening (Matias et al., 2004). These stable cell lines were validated using previously published antagonists at 10 μM against serial dilutions of standard agonists by FLIPR functional assays for Ca^2− Signaling (as described below).
(§4) Ca^2+ signaling studies were performed using a FLIPR TETRA system (Molecular Devices, Sunnyvale, Calif., USA) in the 384-format. This is a high-throughput instrument for cell-based assays to monitor Ca^2+ signaling associated with GPCRs and ion channels. Cells were seeded at a density of 5×10^4 cells/well in BioCoat poly-D-lysine coated, black wall, clear bottom 384-well plates (BD Biosciences, Franklin lakes, N.J., USA) and allowed to attach overnight in an incubator at 37° C. The cells were then washed twice with HBSS-HEPES buffer (Hanks' balanced salt solution without bicarbonate and phenol red, 20 mM HEPES, pH 7.4) using an ELx405 Select CW Microplate Washer (BioTek, Winooski, Vt., USA). After 60 min of dye-loading in the dark using the Ca^2+-sensitive dye Fluo-4AM (Invitrogen, Carlsbad, Calif., USA), at a final concentration of 2×10^−6M, the plates were washed 4 times with HBSS-HEPES buffer to remove excess dye and leaving 50 μl of buffer in each well. The plates were then placed in the FLIPR TETRA instrument and allowed to equilibrate at 37° C. AGN-211377 was added in a 25 μl volume to each well to give final concentrations of 0.1 μM, 0.3 μM, 1 μM, 3 μM, 10 μM, and 30 μM; or 0.067 μM, 0.1 μM, 0.2 μM, 0.3 μM, 0.67 μM, and 1 μM for cells over-expressing TP receptors. After 4.5 minutes, a 7-point serial dilution of the standard agonist for the corresponding receptor, in a 25 μl volume was injected at the final concentrations from 10^−11M to 10^−5M in 10-fold serial dilution increments for cells expressing human recombinant DP1, EP1, EP2, EP3, EP4, FP, and IP receptors. The dose range for the standard agonist for human recombinant TP receptors was from 10^−12M to 10^−6M. HBSS-HEPES buffer was used as the negative control for the standard agonists. Cells were excited with LED (light emitting diode) excitation at 470-495 nm and emission was measured through an emission filter at 515-575 nm. Assay plates were read for 3.5 minutes using the FLIPR^TETRA. The peak increase in fluorescence intensity was recorded for each well. On each plate, negative controls, dose response of positive controls, and co-treatments of antagonist-agonist for each dose were in triplicates. Standard agonists were as follows: DP=BW 245C, EP1-EP4=PGE2, FP=17-phenyl-PGF2α, IP=Cicaprost, and TP=U-46619. […]

Test [2] deals with T2, human recombinant prostanoid DP1 receptor (Homo sapiens, UniProt Q13258).
T2 construct: expressed in transfected cells; co-transfected with chimeric Gqs-HA
T2 sequence (Q13258 1-359): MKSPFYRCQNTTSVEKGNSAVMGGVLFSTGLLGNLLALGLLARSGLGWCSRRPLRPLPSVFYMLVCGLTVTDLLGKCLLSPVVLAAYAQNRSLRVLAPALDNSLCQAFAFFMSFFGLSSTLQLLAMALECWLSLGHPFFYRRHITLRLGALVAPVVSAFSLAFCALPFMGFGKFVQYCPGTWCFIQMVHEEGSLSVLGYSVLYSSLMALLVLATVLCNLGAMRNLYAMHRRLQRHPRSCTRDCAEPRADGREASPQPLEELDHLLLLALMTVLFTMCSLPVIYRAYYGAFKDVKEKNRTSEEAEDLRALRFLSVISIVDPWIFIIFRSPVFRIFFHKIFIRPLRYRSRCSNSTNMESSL
Kind of test: FLIPR Ca2+ signaling, PG antagonist activity, DP. Conditions: antagonism of standard agonist BW 245C, HEK-293 EBNA stable cells with chimeric Gqs. Here is the method: as §1, §2, §3, §4

Test [3] addresses T3, human recombinant prostanoid EP2 receptor (Homo sapiens, UniProt P43116).
T3 construct: expressed in transfected cells; co-transfected with chimeric Gqs-HA
Kind of test: FLIPR Ca2+ signaling, PG antagonist activity, EP2. Conditions: antagonism of standard agonist PGE2, HEK-293 EBNA stable cells with chimeric Gqs. Here is the method: as §1, §2, §3, §4

Test [4] has as its target T4, human recombinant prostanoid EP3 receptor (Homo sapiens, UniProt P43115).
T4 construct: expressed in transfected cells; co-transfected with chimeric Gqi-HA
T4 sequence (P43115 1-390): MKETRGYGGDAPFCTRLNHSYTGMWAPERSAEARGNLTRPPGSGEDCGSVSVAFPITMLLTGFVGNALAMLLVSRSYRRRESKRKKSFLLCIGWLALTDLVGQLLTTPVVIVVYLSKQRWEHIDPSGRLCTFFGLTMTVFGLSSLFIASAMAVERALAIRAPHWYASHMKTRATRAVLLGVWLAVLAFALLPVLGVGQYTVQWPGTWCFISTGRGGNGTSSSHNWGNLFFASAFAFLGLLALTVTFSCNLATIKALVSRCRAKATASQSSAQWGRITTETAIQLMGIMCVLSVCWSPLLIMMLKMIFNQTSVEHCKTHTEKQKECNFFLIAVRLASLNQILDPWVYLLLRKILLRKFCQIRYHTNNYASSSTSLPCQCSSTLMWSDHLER
Description: FLIPR Ca2+ signaling, PG antagonist activity, EP3. Conditions: antagonism of standard agonist PGE2, HEK-293 EBNA stable cells with chimeric Gqi. The protocol:
as §1, §2, §3, §4

Some results are limits rather than exact numbers.

T1 sequence (P43088 whole entry): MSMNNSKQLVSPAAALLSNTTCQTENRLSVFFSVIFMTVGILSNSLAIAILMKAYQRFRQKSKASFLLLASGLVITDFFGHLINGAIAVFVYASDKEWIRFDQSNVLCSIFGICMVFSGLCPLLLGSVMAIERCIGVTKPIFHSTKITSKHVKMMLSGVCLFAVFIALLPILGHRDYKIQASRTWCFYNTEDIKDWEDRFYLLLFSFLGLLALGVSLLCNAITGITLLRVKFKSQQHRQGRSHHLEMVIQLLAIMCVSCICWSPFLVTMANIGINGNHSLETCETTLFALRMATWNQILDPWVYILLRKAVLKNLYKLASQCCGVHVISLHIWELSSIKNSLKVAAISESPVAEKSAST
T3 sequence (P43116 whole entry): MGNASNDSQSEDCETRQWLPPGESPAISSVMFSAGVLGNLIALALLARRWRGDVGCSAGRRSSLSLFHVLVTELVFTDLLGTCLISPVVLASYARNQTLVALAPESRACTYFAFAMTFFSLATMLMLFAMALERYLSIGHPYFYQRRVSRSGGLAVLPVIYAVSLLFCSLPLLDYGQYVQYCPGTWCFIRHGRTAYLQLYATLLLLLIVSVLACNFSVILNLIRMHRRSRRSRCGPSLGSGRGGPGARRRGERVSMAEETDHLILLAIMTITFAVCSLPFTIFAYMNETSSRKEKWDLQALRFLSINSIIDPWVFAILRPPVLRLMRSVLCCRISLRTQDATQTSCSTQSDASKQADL

Turning to `CCC(CC)COc1ccc(Br)cc1Cn1ncc(CC(=O)O)c1C` [Example 1, {1-[5-bromo-2-(2-ethyl-butoxy)-benzyl]-5-methyl-1H-pyrazol-4-yl}-acetic acid], the Kb in test [1] is 2.7 µM; in test [2] it was 0.4 µM; in test [3], not below 10 µM; in test [4], not below 10 µM.
As to `CCC(CC)COc1ccc(Br)cc1Cn1ncc(C(=O)O)c1C` [Example 2, 1-[5-bromo-2-(2-ethyl-butoxy)-benzyl]-5-methyl-1H-pyrazole-4-carboxylic acid], the Kb in test [1] is 0.08 µM; in test [2] it was 0.6 µM; in test [3], not below 10 µM; in test [4], 6.1 µM.
For `CCC(CC)COc1ccc(Br)cc1Cn1cc(C(=O)O)c(C)n1` [Example 3], in that order: 0.4 µM, 1.1 µM, not below 10 µM and not below 10 µM.
The matching figures for `CCC(CC)COc1ccc(Cl)cc1Cn1cc(C(=O)O)cn1` [Example 4, 1-[5-chloro-2-(2-ethyl-butoxy)-benzyl]-1H-pyrazole-4-carboxylic acid]: 2 µM, 1.4 µM, not below 10 µM and not below 10 µM.
For `CCC(CC)COc1ccc(Cl)cc1Cn1nc(C)c(C(=O)O)c1C` [Example 5, 1-[5-chloro-2-(2-ethyl-butoxy)-benzyl]-3,5-dimethyl-1H-pyrazole-4-carboxylic acid], in that order: 0.7 µM, 0.35 µM, not below 10 µM and not below 10 µM.
Take `CCCc1nn(Cc2cc(Cl)ccc2OCC(CC)CC)cc1C(=O)O` [Example 6, 1-[5-chloro-2-(2-ethyl-butoxy)-benzyl]-3-propyl-1H-pyrazole-4-carboxylic acid]: the Kb in test [1] was not below 10 µM; in test [2], 5.6 µM; in test [3], 8.6 µM; in test [4] it was not below 10 µM.
Take `CCCc1c(C(=O)O)cnn1Cc1cc(Cl)ccc1OCC(CC)CC` [Example 7, 1-[5-chloro-2-(2-ethyl-butoxy)-benzyl]-5-propyl-1H-pyrazole-4-carboxylic acid]: the Kb in test [1], in test [2], in test [3] and in test [4] was not below 10 µM throughout.
`CCC(CC)COc1ccc(C(F)(F)F)cc1Cn1ncc(C(=O)O)c1C` [Example 8, 1-[2-(2-ethyl-butoxy)-5-trifluoromethyl-benzyl]-5-methyl-1H-pyrazole-4-carboxylic acid]: the Kb is 0.2 µM in test [1], 1.4 µM in test [2], not below 10 µM in test [3] and not below 10 µM in test [4].
`CCC(CC)COc1ccc(C(F)(F)F)cc1Cn1cc(C(=O)O)c(C)n1` [Example 9, 1-[2-(2-ethyl-butoxy)-5-trifluoromethyl-benzyl]-3-methyl-1H-pyrazole-4-carboxylic acid]: the Kb in test [1] was 7.2 µM; in test [2], 3.9 µM; in test [3], not below 10 µM; in test [4], not below 10 µM.
Take `CCC(CC)COc1ccc(Cl)cc1Cn1ncc(C(=O)O)c1C` [Example 10, 1-[5-chloro-2-(2-ethyl-butoxy)-benzyl]-5-methyl-1H-pyrazole-4-carboxylic acid]: the Kb in test [1] is 0.19 µM; in test [2], 0.94 µM; in test [3] it was not below 10 µM; in test [4], 3.9 µM.
The matching figures for `Cc1c(C(=O)O)cnn1Cc1cc(Cl)ccc1OCC(C)C` [Example 11, 1-(5-chloro-2-isobutoxy-benzyl)-5-methyl-1-pyrazole-4-carboxylic acid]: 0.5 µM, 4.55 µM, not below 10 µM and not below 10 µM.
As for `Cc1c(C(=O)O)cnn1Cc1cc(Cl)ccc1OCC1CCCC1` [Example 12, 1-(5-chloro-2-cyclopentylmethoxy-benzyl)-5-methyl-1H-pyrazole-4-carboxylic acid], the Kb was 0.11 µM in test [1], 2.5 µM in test [2], not below 10 µM in test [3] and not below 10 µM in test [4].
Consider `Cc1c(C(=O)O)cnn1Cc1cc(Br)ccc1OCC(C)C` [Example 13, 1-(5-bromo-2-isobutoxy-benzyl)-5-methyl-1H-pyrazole-4-carboxylic acid], for which the Kb is 0.07 µM in test [1], 3.5 µM in test [2], not below 10 µM in test [3] and not below 10 µM in test [4].
In the case of `Cc1c(C(=O)O)cnn1Cc1cc(Br)ccc1OCC(C)(C)C` [Example 14, 1-[5-bromo-2-(2,2-dimethyl-propoxy)-benzyl]-5-methyl-1H-pyrazole-4-carboxylic acid], the Kb in test [1] was 0.09 µM; in test [2], 3.4 µM; in test [3], not below 10 µM; in test [4], not below 10 µM.
Turning to `CCC(CC)COc1ccc(OC(F)(F)F)cc1Cn1ncc(C(=O)O)c1C` [Example 15, 1-[2-(2-ethyl-butoxy)-5-trifluoromethoxy-benzyl]-5-methyl-1H-pyrazole-4-carboxylic acid], the Kb in test [1] was 0.14 µM; in test [2] it was 0.78 µM; in test [3] it was not below 10 µM; in test [4] it was not below 10 µM.
Consider `CCC(CC)COc1ccc(Br)cc1Cn1ncc(C(=O)O)c1N` [Example 16, 5-amino-1-[5-bromo-2-(2-ethyl-butoxy)-benzyl]-1H-pyrazole-4-carboxylic acid], for which the Kb in test [1] is 0.2 µM; in test [2], 1.6 µM; in test [3] it was not below 10 µM; in test [4] it was not below 10 µM.
